Assay results from patent US11116767B2, “3,5-disubstituted pyrazoles useful as checkpoint kinase 1 (Chk1) inhibitors, and their preparations and applications” (PHARMAENGINE, INC., priority 2016, dated 2021).

How the values were obtained:
in vivo = test: in vivo; parameters: species or system Balb/c nude mice; conditions: mouse, iv, 40 mg/kg
Method: (§1) Female Balb/c nude mice at 7-8 weeks of age (Body weights between 17-18g) were purchased from Hunan SJA Laboratory Animal Co., Ltd. HT-29 cells were cultured in DMEM culture medium containing 10% fetal bovine serum and LoVo cells were cultured in RPMI 1640 culture medium containing 10% fetal bovine serum. The cells were harvested and washed with serum free culture medium. Finally, the cells were suspended at a cell density of […] in serum free culture medium for implantation. 5 million cells per animal suspended in 0.1 ml serum free culture medium and 1.1 matrigel were injected into the right flank of the animals after a one, week acclimation period. When average tumor volume reached acceptable tumor size (100-200 mm^3) and shape, the animals were randomly assigned into treatment groups.
Compound 3 was selected for further PK studies in tumor bearing mice. HT-29 colon cancer cells were implanted to establish the xenograft model in Balb/c nude mice. Twenty-four mice were divided into 8 time groups with n=3/group. Compound 3 was dissolved in 30% SEB-β-CD (Zhiyuan Bio-technology) with 1 molar equivalents of HCl. Each animal was dosed via intravenous administration of Compound 3 at 40 mg/kg. Blood and tumors were collected at various time points after mice were euthanized with CO2. Blood samples were centrifuged at 4° C. immediately after collection. The supernatants were transferred to 1.5 mL of Eppendorf vials as soon as possible and stored at −80° C. in a freezer. Tumor samples were collected and placed in dry ice until transferred to a −80° C. freezer for bioanalysis.

HT-29 tumor xenograft = test: HT-29 xenograft model, alone or in combination with CPT-11; format: in vivo, Balb/c nude mice; conditions: for % T/C value: 40 mg/kg, IV
Method: as §1
In HT-29 tumor xenograft model, the animals were treated with a single compound, a ChK1 inhibitor or CPT-11, or a combination with CPT11. […] The animals well tolerated each treatment in the HT-29 colon cancer in nude mice model.

SMILES: COc1cc(F)cc(OCCCN)c1-c1cc(Nc2cnc(C#N)cn2)n[nH]1 [Compound 3, 5-(5-(2-(3-Aminopropoxy)-4-fluoro-6-methoxyphenyl)-1H-pyrazol-3-ylamino)pyrazine-2-carbonitrile]
- Kp (in vivo; female, Balb/c nude): ~6
- half-life (in vivo; female, Balb/c nude, half-life in blood): 6.1 h
- half-life (in vivo; female, Balb/c nude, half-life in tumor tissues): 14 h
- distribution into tumor tissues (in vivo): rapidly distributed into tumor tissues
- efficacy compared with LY-2606368, alone or with CPT-11 (HT-29 tumor xenograft; 40 mg/kg IV twice a week vs LY-2606368 15 mg/kg IV twice a week): more efficacious than the reference LY-2606368
- % T/C value (HT-29 tumor xenograft; twice a week plus CPT-11 (50 mg/kg, IV, once per week)): −9%
- % T/C value (HT-29 tumor xenograft; alone, twice a week): 26%
- effect on anti-tumor growth activity of CPT11 (HT-29 tumor xenograft; combination with CPT11): enhanced anti-tumor growth activity of CPT11
